Entries after “also recorded” stand apart in the source; their conditions may differ. Read-outs that look alike come from different tables or passages of the source.

A short description of data set [1]: Solution and suspension levels of terpenes in water. From the text: The terpene and water were blended in a household blender for 30 seconds.
Examples of these levels are as follows.

The subject of data set [2] is human erythrocytes.
Data set [3] has as its system E. coli. To be noted: cited from earlier work.
The nature of data set [4]: Potency decay / breakdown of terpenes in presence of oxygen. Particulars: 500 ppm solution. The data set is classed as physicochemical. From the text: Terpenes will break down in the presence of oxygen. Citral, for example, is an aldehyde and will decay (oxygenate) over a period of days.
Data set [5] relates to H. pylori. To be noted: cited from earlier work.
Data set [6] deals with Mycoplasma pneumoniae. The data set is described as follows: Effectiveness against Mycoplasma pneumoniae (color change of SP4 medium). The data set is classed as cell-based. To be noted: 40 hours treatment. The procedure: Terpene beta-ionone or L-carvone was first mixed well with Tween® 80 to have a final Tween® 80 concentration of 5 vol %. This mixture was then used to make concentrations of 2500 ppm in sterile phosphate buffer saline (PBS) by blending the mixture in PBS for 40 seconds. This 2500 ppm solution was then diluted to 500 ppm, 250 ppm, and 125 ppm with PBS.
PBS containing 25 ppm Tween® 80 or PBS alone was used to treat cells suspension as controls.
A log phase (2-3 -day old) culture of Mycoplasma pneumoniae was mixed with each of the above three concentrations of terpene at 1:1 (volume) ratio (in this case, I mL of cell suspension was added to 1 mL of terpene).
The culture and terpene mixture was then incubated at 37° C. for 40 hours. After 40 hours of treatment, 10-fold serial dilution was performed to 10 (−10) by first taking 0.1 mL of the treated culture suspension was added into 0.9 mL of fresh SP4 (Whitcomb (1983); SP4 media is commercially available (Remel, Lenexa, Kans., USA)). All the tubes were then incubated at 37° C., and a color change of the medium was used for the indication of the cells that either were killed or survived from the treatment. Color change was from red to yellow because Mycoplasma pneumoniae produces acid during its growth.
All the treatments were performed in duplicate.

Data set [7] relates to Third stage (L3) Dirofilaria immitis larvae. As to the kind of experiment: In-vitro larvacidal effect. The data set is classed as cell-based. The protocol: Third stage (L3) Dirofilaria immitis larvae were suspended at a concentration of 85 larvae/ml. Larvae were deposited on plates with wells containing b-ionone at a concentration of 5 μM, 50 μM, and 750 μM, Tween® 80, and control media.
Plates were incubated at 37° C., 95% relative humidity (RH), and 5% CO2 for 6 days.
After incubation all wells were evaluated for appearance, motility, and molting to stage four (L4) at 24, 48, 72 hours, and 6 days.

[8] abbreviates: in water without surfactant, high-shear blending.

As to `C=C(C)C1CC=C(C)C(=O)C1` (stereo not shown) [Carvone], the “Solution levels for various terpenes (maximum level solubilized)” value (“Solution levels for various terpenes” below) in data set [1] (setting [8]) is given as 500 ppm.

For `CC(C)=CCCC(C)=CC=O` [Citral, 3,7-dimethyl-2,6-octadien-1-al], the “Concentration that will lyse human erythrocytes” value in data set [2] is listed as “about 1000 ppm”. In addition, in data set [3], the “Citral in growth media that reduced the concentration of E. coli” value was “more than 0.01%” and the “Citral in growth media with bactericidal effect” value was 0.08%. Moreover, the “Time to lose half its potency” value in data set [4] was 2-3 weeks. Also, the “Level up to which a stable suspension of citral can be formed” value in data set [1] was “up to 2500 ppm”. Also, the “Level up to which citral forms a solution in water” value in data set [1] (true solution, high shear mixing, no surfactant) is listed as “up to 1000 ppm”.

Consider `CC(C)=CCC/C(C)=C/CO` [Geraniol], for which, in data set [1], the “Solution levels for various terpenes” value was found to be 500 ppm. In data set [5], the “Concentration that inhibited the growth of H. pylori in vitro” value is given as 2 mg/L.

For the compound `CC(=O)/C=C/C1=C(C)CCCC1(C)C` [b-ionone], the “Solution levels for various terpenes” value in data set [1] (setting [8]) came out at 500 ppm. Further, the “Color change of the first tube three days after the 10-fold dilution (killing effect)” value in data set [6] (62.5 ppm, 125 ppm and 250 ppm) is “did not change color at all indicating a killing effect”. Moreover, in data set [6] (62.5 ppm), the “Color change of tubes 6 days after the 10-fold dilution” value was “only the first tube of 62.5 ppm beta-ionone changed color”. In data set [6] (125 and 250 ppm), the “Killing of cells, 6 days after the 10-fold dilution” value is given as “may have completely killed all cells in 40 hours”. For the same compound, the “Survival, motility and molting of larvae” value in data set [7] (5 μM) was “no effect on the larvae”; in data set [7] (50 μM, 6 day assay) it was “decreased survivability, motility, and molting; also recorded: Most larvae were dead by 6 days and none molted”; in data set [7] (750 μM), “all larvae were dead or moribund within 24 hours”.

With L-carvone, in data set [6] (62.5 ppm, 125 ppm and 250 ppm), the “Color change of the first tube three days after the 10-fold dilution (killing effect)” value was “no killing effects”; the “Color change of the second and third tube 6 days after the 10-fold dilution” value is reported as “changed color”.

On to Terpeniol, for which the “Solution levels for various terpenes” value in data set [1] (setting [8]) was determined as 500 ppm.

The values are drawn from patent US20030231978A1, “Indoor air quality and antiseptic composition for use therein” (priority 2002, published 2003).
